Experimental data as given in ChEMBL document CHEMBL6127052, “Discovery of membrane-targeting amphiphilic honokiol derivatives containing an oxazolethione moiety to combat methicillin-resistant Staphylococcus aureus (MRSA) infections” (Eur J Med Chem, 2024).
The source made the active and inactive calls. The rule behind the calls is not given here.

Experiments:
Staphylococcus aureus [1] = assay: Induction of resistance development in Staphylococcus aureus ATCC 29213 assessed as increase in MIC at 0.5 times MIC treated for 4 days of consecutive passages; format: functional, organism-based; conditions: time 4.0 day
Staphylococcus aureus [2] = assay: Induction of resistance development in Staphylococcus aureus ATCC 29213 assessed as fold increase in MIC at 0.5 times MIC treated for 18 days of consecutive passages; format: functional; conditions: time 18 day
Staphylococcus aureus [3] = assay: Antibacterial activity against methicillin-resistant Staphylococcus aureus clinical isolate M21 by CLSI based micro-broth dilution method; format: functional
Escherichia coli = assay: Antibacterial activity against Escherichia coli ATCC 25922 by CLSI based micro-broth dilution method; format: functional
Staphylococcus aureus [4] = assay: Antibacterial activity against methicillin-resistant Staphylococcus aureus clinical isolate M12 by CLSI based micro-broth dilution method; format: functional
Staphylococcus aureus [5] = assay: Antibacterial activity against methicillin-resistant Staphylococcus aureus clinical isolate M13 by CLSI based micro-broth dilution method; format: functional
Staphylococcus aureus [6] = assay: Antibacterial activity against methicillin-resistant Staphylococcus aureus clinical isolate M22 by CLSI based micro-broth dilution method; format: functional
Staphylococcus aureus [7] = assay: Antibacterial activity against methicillin-resistant Staphylococcus aureus clinical isolate M17 by CLSI based micro-broth dilution method; format: functional
Staphylococcus aureus [8] = assay: Antibacterial activity against methicillin-resistant Staphylococcus aureus clinical isolate M14 by CLSI based micro-broth dilution method; format: functional
Staphylococcus aureus [9] = assay: Antibacterial activity against Staphylococcus aureus ATCC 29213 by CLSI based micro-broth dilution method; format: functional
Staphylococcus aureus [10] = assay: Antibacterial activity against methicillin-resistant Staphylococcus aureus N315 by CLSI based micro-broth dilution method; format: functional
[11] = Hemolytic activity in sheep erythrocytes incubated for 1 hr by absorbance based assay; format: toxicity, cell-based, Ovis aries, Erythrocyte
Staphylococcus aureus [12] = assay: Antibacterial activity against methicillin-resistant Staphylococcus aureus clinical isolate M11 by CLSI based micro-broth dilution method; format: functional
Staphylococcus aureus [13] = assay: Antibacterial activity against methicillin-resistant Staphylococcus aureus clinical isolate M23 by CLSI based micro-broth dilution method; format: functional
Staphylococcus aureus [14] = assay: Antibacterial activity against methicillin-resistant Staphylococcus aureus clinical isolate M20 by CLSI based micro-broth dilution method; format: functional
Staphylococcus aureus [15] = assay: Antibacterial activity against methicillin-resistant Staphylococcus aureus clinical isolate M16 by CLSI based micro-broth dilution method; format: functional
[16] = Selectivity index, ratio of HC50 for hemolytic activity in sheep erythrocytes to MIC for antibacterial activity against Staphylococcus aureus ATCC 29213; format: toxicity, cell-based, RBC

Row | SMILES | Activity (Staphylococcus aureus [1]) | fold change (FC) (Staphylococcus aureus [2]) | MIC (Staphylococcus aureus [3]) [µg/mL] | MIC (Escherichia coli) [µg/mL] | MIC (Staphylococcus aureus [4]) [µg/mL] | MIC (Staphylococcus aureus [5]) [µg/mL] | MIC (Staphylococcus aureus [6]) [µg/mL] | MIC (Staphylococcus aureus [7]) [µg/mL] | MIC (Staphylococcus aureus [8]) [µg/mL] | MIC (Staphylococcus aureus [9]) [µg/mL] | MIC (Staphylococcus aureus [10]) [µg/mL] | HC50 at 1 h [11] [µg/mL] | MIC (Staphylococcus aureus [12]) [µg/mL] | MIC (Staphylococcus aureus [13]) [µg/mL] | MIC (Staphylococcus aureus [14]) [µg/mL] | MIC (Staphylococcus aureus [15]) [µg/mL] | selectivity ratio [16]
1 | CCn1cc(C(=O)O)c(=O)c2cc(F)c(N3CCNCC3)cc21 [NORFLOXACIN] | Active | 128 | – | – | – | – | – | – | – | – | – | – | – | – | – | – | –
2 | C=CCc1cc(-c2ccc(OCCC[N+](C)(C)CC(=O)NCCCC)c(CC=C)c2)c2oc(=S)n(Cc3ccccc3)c2c1.[Br-] | – | – | 4 | > 128 | 4 | 4 | 4 | 8 | 4 | 8 | 8 | > 160 | 4 | 4 | 8 | 4 | > 20
3 | C=CCc1cc(-c2ccc(OCCC[N+](C)(C)CC(=O)NCCCC)c(CC=C)c2)c2oc(=S)n(Cc3ccc(F)cc3Cl)c2c1.[Br-] | – | – | 16 | > 128 | 32 | 64 | 64 | 64 | 16 | 32 | 32 | > 160 | 16 | 32 | 16 | 16 | > 5
4 | C=CCc1cc(-c2ccc(OCCC[N+](C)(C)CC(=O)NCCCC)c(CC=C)c2)c2oc(=S)n(Cc3ccc(Br)cc3Br)c2c1.[Br-] | – | – | > 128 | > 128 | > 128 | > 128 | > 128 | > 128 | > 128 | > 128 | 128 | 65.4 | > 128 | > 128 | > 128 | > 128 | 0.5
5 | C=CCc1cc(-c2ccc(OCCC[N+](C)(C)CC(=O)NCCCC)c(CC=C)c2)c2oc(=S)n(Cc3ccc(OC)cc3)c2c1.[Br-] | – | – | 2 | > 128 | 2 | 4 | 8 | 16 | 2 | 32 | 32 | 57.4 | 2 | 8 | 2 | 4 | 1.8
6 | C=CCc1cc(-c2ccc(OCCC[N+](C)(C)CC(=O)NCCCC)c(CC=C)c2)c2oc(=S)n(Cc3ccc(Cl)cc3F)c2c1.[Br-] | – | – | > 128 | > 128 | > 128 | > 128 | > 128 | > 128 | > 128 | > 128 | 128 | > 160 | > 128 | > 128 | > 128 | > 128 | 1.3
7 | C=CCc1cc(-c2ccc(OCCC[N+](C)(C)CC(=O)NCCCC)c(CC=C)c2)c2oc(=S)n(Cc3ccc(Cl)c(F)c3)c2c1.[Br-] | – | – | 8 | > 128 | 8 | 16 | 64 | 128 | 16 | 32 | 32 | > 160 | 8 | 8 | 8 | 8 | > 5
8 | C=CCc1cc(-c2ccc(OCCC[N+](C)(C)CC(=O)NCCCC)c(CC=C)c2)c2oc(=S)n(Cc3ccc(F)c(Br)c3)c2c1.[Br-] | – | – | 4 | > 128 | 4 | 8 | 32 | 16 | 8 | 16 | 16 | 42.1 | 8 | 8 | 4 | 8 | 2.6
9 | C=CCc1cc(-c2ccc(OCCC[N+](C)(C)CC(=O)NCCCC)c(CC=C)c2)c2oc(=S)n(Cc3ccc(F)c(Cl)c3)c2c1.[Br-] | – | – | 8 | > 128 | 8 | 16 | 32 | 16 | 32 | 128 | 64 | > 160 | 16 | 32 | 16 | 16 | > 1.25
10 | C=CCc1cc(-c2ccc(OCCC[N+](C)(C)CC(=O)NCCCC)c(CC=C)c2)c2oc(=S)n(Cc3ccccc3F)c2c1.[Br-] | – | – | 4 | > 128 | 4 | 8 | 32 | 8 | 8 | 8 | 8 | > 160 | 4 | 8 | 8 | 8 | > 20
11 | C=CCc1cc(-c2ccc(OCCC[N+](C)(C)CC(=O)NCCCC)c(CC=C)c2)c2oc(=S)n(Cc3cc(Br)cc(Br)c3)c2c1.[Br-] | – | – | 32 | > 128 | 64 | 128 | 64 | 64 | 128 | > 128 | 64 | > 160 | 32 | 64 | 32 | 64 | 1.3
